# Assay results: PMC6731595, “The anti-parasitic agent suramin and several of its analogues are inhibitors of the DNA binding protein Mcm10” (Open Biology, 2019)
# Structures can show the parent of a compound that is named as a salt.
# Experiments:
# [1] = target: T1, full-length Xenopus Mcm10 (xMcm10-FL) (Xenopus laevis, UniProt Q5EAW4); experiment: Fluorescence polarization competition assay, displacement of 5′-6FAM ssDNA probe from xMcm10-FL; type: binding; conditions: for Ki: averages of n = 2, xMcm10-FL 2 μM; for activity at xMcm10-FL (result in words): FP displacement curves, figure S3
# T1 construct: The full-length xMcm10 was expressed with MBP fused onto the N-terminus and 6x-His tag attached to the C-terminus; 6xHis (C); made in house; host or cells: E. coli BL21(DE3), as for the ID constructs ('as described above')
# T1 sequence (Q5EAW4 1-860): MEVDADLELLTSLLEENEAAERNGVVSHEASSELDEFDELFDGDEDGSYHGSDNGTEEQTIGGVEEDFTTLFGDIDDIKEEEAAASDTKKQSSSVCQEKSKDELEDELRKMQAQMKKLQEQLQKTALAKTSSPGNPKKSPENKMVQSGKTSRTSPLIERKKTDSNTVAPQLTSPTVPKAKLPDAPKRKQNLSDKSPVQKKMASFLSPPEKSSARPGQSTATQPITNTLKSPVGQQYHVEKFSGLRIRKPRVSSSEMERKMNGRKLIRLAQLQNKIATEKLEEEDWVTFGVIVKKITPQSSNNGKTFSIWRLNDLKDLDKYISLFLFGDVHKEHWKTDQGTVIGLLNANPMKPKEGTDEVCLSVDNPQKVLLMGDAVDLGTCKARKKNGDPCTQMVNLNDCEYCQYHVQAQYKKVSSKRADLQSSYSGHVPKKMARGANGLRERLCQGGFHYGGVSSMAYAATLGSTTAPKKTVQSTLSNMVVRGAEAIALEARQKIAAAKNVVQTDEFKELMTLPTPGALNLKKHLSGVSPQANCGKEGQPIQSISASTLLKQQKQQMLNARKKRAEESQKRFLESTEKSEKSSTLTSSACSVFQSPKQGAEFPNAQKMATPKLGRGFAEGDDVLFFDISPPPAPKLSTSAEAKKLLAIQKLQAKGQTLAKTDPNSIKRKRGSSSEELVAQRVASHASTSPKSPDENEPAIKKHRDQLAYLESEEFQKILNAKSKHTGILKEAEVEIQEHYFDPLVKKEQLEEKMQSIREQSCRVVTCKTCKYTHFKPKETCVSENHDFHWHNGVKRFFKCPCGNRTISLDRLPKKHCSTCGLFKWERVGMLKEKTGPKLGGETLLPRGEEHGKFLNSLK
# Protocol: (§1) A fluorescence polarization (FP) HTS assay was established to detect inhibitors of the binding of the 5′-6FAM 10-mer oligo probe to Mcm10. Test compounds dissolved in DMSO were added to 384-well plates (Corning 4514) using an Echo 550 acoustic dispenser (final DMSO 0.1%) to achieve a final single point screening concentration of 10 µM. Then 10 µl of 2× Xenopus internal domain Mcm10 (xMcm10-ID, final concentration 2 µM) in binding buffer (20 mM Tris HCl, 100 mM NaCl, 5% glycerol, and 0.01% triton, pH 7.5) was added using the Combi nL Multidrop dispenser. Finally, 10 µl of 2× 5′-6FAM DNA (final 12.5 nM) in binding buffer was added using the Multidrop. DMSO (0.1%, high signal) and probe only (low signal) controls were included on every plate. Plates were mixed for 2 min, incubated for 60 min at RT in the dark, and read on a CLARIOstar multimode plate reader (excitation: 482-16, emission: 530-40, dichroic filter: LP504).
# (§2) The LOPAC pilot screen identified the sulfhydryl reagent 4-chloromercuribenzoic acid as an inhibitor in the fluorescence polarization (FP) assay. As there was no known Mcm10 inhibitor, 4-chloromercuribenzoic acid (30 μM) was used as a positive control on initial screening plates. Following the discovery of suramin as a Mcm10 inhibitor, suramin (7 μM) was used as a positive control on subsequent screening plates. To confirm activity, screening hits were tested in dose response experiments (8 concentrations in duplicate) using xMcm10-ID. Similar dose response experiments were conducted with suramin and its analogs to confirm activity for hMcm10-ID (1 μM) and xMcm10-FL (2 μM) and to determine selectivity relative to RPA70AB (0.4 μM). Saturation experiments for each protein were conducted using increasing concentrations of protein with a fixed probe concentration (12.5 nM). FP was measured in mP units, and ∆mP values for each well were calculated as the difference between the measured mP and the average of the “probe only” controls. […] The parallel and perpendicular mP values were also used to calculate total fluorescence intensity (TFI) determined by the sum of parallel mP + (2 x perpendicular mP). TFI was used to detect fluorescence interference by compounds [1]. […] IC50 values were calculated using the four parameter logistic equation in Prism 6.0 (GraphPad). Ki values were obtained using an online Ki calculator according to the equations of Nikolovska-Coleska (http://sw16.im.med.umich.edu/soft-ware/calc_ki/). KD values were calculated using the one site or two site binding equations in Prism 6.0 (GraphPad).
# [2] = target: T2, human RPA70AB (A and B DNA binding domains of RPA70) (Homo sapiens, UniProt P27694); experiment: Fluorescence polarization competition assay, displacement of 5′-6FAM ssDNA probe from RPA70AB; conditions: for Ki: predominant low-affinity (or only) component, mean ± s.e.m., n ≥ 3, read-out: fluorescence polarization hRPA70AB Ki2; for selectivity RPA/ hMcm10: ratio of hRPA70AB Ki2 to hMcm10-ID Ki (FP); for selectivity for hMcm10 over RPA70AB: FP
# T2 construct: recombinant human RPA70AB (181-422) in a pSV281 vector; 6xHis (TEV site) (N, cleaved yes); made in house; host or cells: Escherichia coli BL21(DE3)
# T2 sequence (P27694 181-422): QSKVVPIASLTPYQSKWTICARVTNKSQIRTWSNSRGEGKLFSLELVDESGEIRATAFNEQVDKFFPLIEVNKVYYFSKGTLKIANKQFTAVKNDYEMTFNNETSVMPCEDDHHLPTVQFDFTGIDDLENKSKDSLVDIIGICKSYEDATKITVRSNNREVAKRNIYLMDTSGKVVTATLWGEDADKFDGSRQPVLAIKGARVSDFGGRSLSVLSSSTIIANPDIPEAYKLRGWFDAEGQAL
# Protocol: as §1, §2
# hTERT RPE-1 cells = experiment: CellTiter-Glo cell viability assay, hTERT RPE-1; type: cell-based; conditions: Homo sapiens, hTERT-RPE1, 96 h; 4 days, intracellular ATP; mean ± s.e.m., n = 3
# Protocol: HCT116 cells were grown in McCoy's 5A medium (Corning 10-050-CV) supplemented with 10% FBS (Sigma F4135), 1% Pen Strep (Gibco 15140) and 1% L-Glutamine (Gibco 205030). hTERT RPE-1 cells were grown in DMEM/F12 medium (Gibco 11320) supplemented with 10% FBS (Sigma F4135) and 1% Pen Strep (Gibco 15140). Cells were cultured at 37°C and 5% CO2. Cells were plated at 250 cells (hTERT RPE-1) or 500 cells (HCT116) per well in white-walled 96-well plates (Costar 3610) and allowed to recover for 24 h. Stock solutions of each inhibitor were prepared in sterile 1× PBS (Gibco 14190), and further diluted in the appropriate growth medium for each cell type. Cells were allowed to grow for 4 days in inhibitor containing medium and cell viability was measured with the CellTiter-Glo Luminescent Cell Viability Assay (Promega G7572) following the manufacturer's instructions. Viability of each drug treatment condition was normalized to the untreated control for each cell line and fitted to the sigmoidal dose–response variable slope four parameter equation in GraphPad Prism 6.0.
Structure (SMILES),Ki [1] [µM],Ki [2] [µM],selectivity RPA/ hMcm10 [2],higher affinity for hMcm10-ID over xMcm10-FL ([1]; FP Ki comparison),selectivity for hMcm10 over RPA70AB [2],IC50 (hTERT RPE-1 cells) [µM],activity at xMcm10-FL (result in words) [1]
O=C(Nc1cccc(C(=O)Nc2ccc(S(=O)(=O)O)c3cc(S(=O)(=O)O)cc(S(=O)(=O)O)c23)c1)Nc1cccc(C(=O)Nc2ccc(S(=O)(=O)O)c3cc(S(=O)(=O)O)cc(S(=O)(=O)O)c23)c1 [NF023],4.4,11 ± 1,6,–,–,–,–
O=C(Nc1cccc(C(=O)Nc2cc(C(=O)Nc3ccc(S(=O)(=O)O)c4cc(S(=O)(=O)O)cc(S(=O)(=O)O)c34)ccc2F)c1)Nc1cccc(C(=O)Nc2cc(C(=O)Nc3ccc(S(=O)(=O)O)c4cc(S(=O)(=O)O)cc(S(=O)(=O)O)c34)ccc2F)c1 [NF157],3.4,1.9 ± 0.1,11,up to 20 fold,more than 10 fold,120 ± 16,–
"Cc1nc(/N=N/c2ccc(S(=O)(=O)O)cc2S(=O)(=O)O)c(COP(=O)(O)O)c(C=O)c1O [PPADS, pyridoxalphosphate-6-azophenyl-2’, 4’-disulfonic acid tetrasodium salt]",> 1000,> 1000,>59,–,greater than 50 fold,400 ± 14,inactivity
"Cc1nc(/N=N/c2cc(S(=O)(=O)O)ccc2S(=O)(=O)O)c(COP(=O)(O)O)c(C=O)c1O [iso-PPADS, pyridoxalphosphate-6-azophenyl-2’, 5’-disulfonic acid tetrasodium salt]",> 1000,> 1000,>56,–,greater than 50 fold,560 ± 55,inactivity
"Cc1ccc(C(=O)Nc2ccc(S(=O)(=O)O)c3cc(S(=O)(=O)O)cc(S(=O)(=O)O)c23)cc1NC(=O)c1cccc(NC(=O)Nc2cccc(C(=O)Nc3cc(C(=O)Nc4ccc(S(=O)(=O)O)c5cc(S(=O)(=O)O)cc(S(=O)(=O)O)c45)ccc3C)c2)c1 [suramin, suramin sodium salt]",3.4,2.5 ± 0.1,3,–,–,400 ± 22,–
